{"source": "patent US11026944B2", "about": "“Compositions and methods for treating insomnia” (Eisai R&D Management Co., Ltd., priority 2014, dated 2021)", "key": {"[1]": {"assay": "Single daily dose PK in human subjects (summary statements)", "type": "in vivo", "details": "plasma, oral; for Cmax: read-out: mean maximum plasma concentration (Cmax); for half-life: read-out: mean t1/2 (converted); for Tmax: read-out: mean time to maximum plasma concentration (tmax)"}, "subjects with insomnia": {"test_system": "subjects with insomnia", "assay": "201 Study: Karolinska Sleepiness Scale (next-day residual sleepiness)", "type": "in vivo, human", "protocol": "All subjects returned to the clinic on Day-1 for Baseline Period procedures. They remained in the clinic until Day 3. Morning assessments on Day 1 provided the Baseline values for the KSS, the Digit Symbol Substitution Test (DSST), and the Reaction Time Index (RTI). Assessments at 6 hours after waketime provided the Baseline values for the Waking Function Battery (WFB), and the Profile of Mood States-Brief (POMS-B). Subjects were then randomized to receive 1 of 6 doses of compound A or placebo for the next 15 days. Study drugs were tablets containing compound A-matched placebo or compound A of 1 mg, 2.5 mg, 5 mg, or 10 mg and to be ingested 30 minutes before the median habitual bedtime calculated from their Sleep Diary responses during the Screening Period. An 8-hour PSG, starting at the same bedtime as used for the screening and Baseline PSG nights, was recorded on the first 2 treatment nights (Days 1 and 2). The Sleep Diary continued to be completed each day in the clinic, and assessments of insomnia severity (ISI), next-day residual effects (KSS, DSST, and RTI) were conducted while subjects were in the clinic. On specified study days, plasma concentrations of compound A were assessed while subjects were in the clinic in the morning after awakening and at trough just before dosing.\nThe KSS was used to measure next-day residual effects at prespecified timepoints. In this test, subjects rate their sleepiness using the KSS, a 9-point verbally anchored scale. Categories and scores range from“extremely alert” (score=1), “alert” (3), “neither alert nor sleepy” (5), “sleepy-but no difficulty remaining awake” (7), to “extremely sleepy-fighting sleep” (9). The key outcome parameter for the KSS was the score from 1 to 9.\nEach dose was assessed for next-day residual sleepiness using the KSS. A mean difference of change from baseline in KSS at 1 hour after waketime on Day 2 and Day 3 of less than 4 units was incorporated into the utility function. A dose of compound A was considered to have an acceptable KSS at Day 15 and Day 16 if the mean difference of change from baseline in KSS at 1 hour after waketime on Day 15 and Day 16 at this dose relative to placebo was less than 4 units. Operationally, acceptable KSS for Day 15 and Day 16 was defined as the […] boundary of a 90% confidence interval (CI) being less than 4 units (of the mean difference of change from baseline in KSS at 1 hour after waketime at this dose relative to placebo).\nIn Table 6, “Baseline” was defined as the time-matched value on Day 1. “LS Means Diff” refers to the differences between LS Means of Placebo and each compound A dose, “95% CI” means to 95% CI of LS Means Diff. “p-value” was analyzed using analysis of covariance (ANCOVA) with baseline as a covanate."}, "[2]": {"details": "1 hour post waketime, 1 mg nightly"}, "[3]": {"details": "1 hour post waketime, 2.5 mg nightly"}, "[4]": {"details": "1 hour post waketime, 5 mg nightly"}, "[5]": {"details": "1 hour post waketime, 10 mg nightly"}, "[6]": {"details": "1 hour post waketime, 15 mg nightly"}, "[7]": {"details": "1 hour post waketime, 25 mg nightly"}}, "note": "Read-outs that look alike come from different tables or passages of the source.", "data": [{"molecule": "Cc1ncc(OC[C@@]2(c3cccc(F)c3)C[C@H]2C(=O)Nc2ccc(F)cn2)c(C)n1", "note": "[Compound A, (1R,2 S)-2-(((2,4-dimethylpyrimidin-5-yl)oxy)methyl)-2-(3-fluorophenyl)-N-(5-fluoropyridin-2-yl) cyclopropanecarboxamide]", "values": [{"measurement": "AUC(0-t)", "setting": "[1]; 2.5 mg, single 2.5 mg daily dose, read-out: mean AUC(0-24)", "value": "57 to 60", "unit": "ng·h/mL"}, {"measurement": "AUC(0-t)", "setting": "[1]; 2.5 mg, single 2.5 mg daily dose, read-out: mean AUC(0-t)", "value": "80 to 95", "unit": "ng·h/mL"}, {"measurement": "AUC(0-t)", "setting": "[1]; 5 mg, single 5 mg daily dose, read-out: mean AUC(0-24)", "value": "95 to 110", "unit": "ng·h/mL"}, {"measurement": "AUC(0-t)", "setting": "[1]; 5 mg, single 5 mg daily dose, read-out: mean AUC(0-t)", "value": "~128", "unit": "ng·h/mL"}, {"measurement": "AUC(0-t)", "setting": "[1]; 10 mg, single 10 mg daily dose, read-out: mean AUC(0-24)", "value": "160 to 190", "unit": "ng·h/mL"}, {"measurement": "AUC(0-t)", "setting": "[1]; 10 mg, single 10 mg daily dose, read-out: mean AUC(0-t)", "value": "280 to 510", "unit": "ng·h/mL"}, {"measurement": "AUC(0-inf)", "setting": "[1]; single 2.5 mg daily dose", "value": "80 to 103", "unit": "ng·h/mL"}, {"measurement": "Cmax", "setting": "[1]; single 2.5 mg daily dose", "value": "10 to 18", "unit": "ng/mL"}, {"measurement": "half-life", "setting": "[1]; single 2.5 mg daily dose", "value": "30 to 37", "unit": "h"}, {"measurement": "Tmax", "setting": "[1]; single 2.5 mg daily dose", "value": "1 to 2", "unit": "h"}, {"measurement": "AUC(0-inf)", "setting": "[1]; single 5 mg daily dose", "value": "~150", "unit": "ng·h/mL"}, {"measurement": "Cmax", "setting": "[1]; single 5 mg daily dose", "value": "19 to 23", "unit": "ng/mL"}, {"measurement": "half-life", "setting": "[1]; single 5 mg daily dose", "value": "~31", "unit": "h"}, {"measurement": "Tmax", "setting": "[1]; single 5 mg daily dose", "value": "1 to 2", "unit": "h"}, {"measurement": "AUC(0-inf)", "setting": "[1]; single 10 mg daily dose", "value": "310 to 530", "unit": "ng·h/mL"}, {"measurement": "Cmax", "setting": "[1]; single 10 mg daily dose", "value": "30 to 58", "unit": "ng/mL"}, {"measurement": "half-life", "setting": "[1]; single 10 mg daily dose", "value": "56 to 60", "unit": "h"}, {"measurement": "Tmax", "setting": "[1]; single 10 mg daily dose", "value": "1 to 3.25", "unit": "h"}, {"measurement": "KSS vs placebo, significance", "setting": "subjects with insomnia; 15 min post waketime timepoints", "value": "No statistically significant differences"}, {"measurement": "Change from Baseline in KSS, Mean of Days 2 & 3: LS Means Diff vs placebo", "setting": "subjects with insomnia; [2]", "value": 0.02}, {"measurement": "Change from Baseline in KSS, Mean of Days 2 & 3: Mean", "setting": "subjects with insomnia; [2]", "value": "−0.2"}, {"measurement": "Change from Baseline in KSS, Mean of Days 15 & 16: LS Means Diff vs placebo", "setting": "subjects with insomnia; [2]", "value": 0.51}, {"measurement": "Change from Baseline in KSS, Mean of Days 15 & 16: Mean", "setting": "subjects with insomnia; [2]", "value": 0.3}, {"measurement": "Change from Baseline in KSS, Mean of Days 2 & 3: LS Means Diff vs placebo", "setting": "subjects with insomnia; [3]", "value": "−0.06"}, {"measurement": "Change from Baseline in KSS, Mean of Days 2 & 3: Mean", "setting": "subjects with insomnia; [3]", "value": "−0.3"}, {"measurement": "Change from Baseline in KSS, Mean of Days 15 & 16: LS Means Diff vs placebo", "setting": "subjects with insomnia; [3]", "value": 0.13}, {"measurement": "Change from Baseline in KSS, Mean of Days 15 & 16: Mean", "setting": "subjects with insomnia; [3]", "value": "−0.1"}, {"measurement": "Change from Baseline in KSS, Mean of Days 2 & 3: LS Means Diff vs placebo", "setting": "subjects with insomnia; [4]", "value": 0.20}, {"measurement": "Change from Baseline in KSS, Mean of Days 2 & 3: Mean", "setting": "subjects with insomnia; [4]", "value": "−0.1"}, {"measurement": "Change from Baseline in KSS, Mean of Days 15 & 16: LS Means Diff vs placebo", "setting": "subjects with insomnia; [4]", "value": 0.43}, {"measurement": "Change from Baseline in KSS, Mean of Days 15 & 16: Mean", "setting": "subjects with insomnia; [4]", "value": 0.1}, {"measurement": "Change from Baseline in KSS, Mean of Days 2 & 3: LS Means Diff vs placebo", "setting": "subjects with insomnia; [5]", "value": 0.16}, {"measurement": "Change from Baseline in KSS, Mean of Days 2 & 3: Mean", "setting": "subjects with insomnia; [5]", "value": 0.0}, {"measurement": "Change from Baseline in KSS, Mean of Days 15 & 16: LS Means Diff vs placebo", "setting": "subjects with insomnia; [5]", "value": 0.01}, {"measurement": "Change from Baseline in KSS, Mean of Days 15 & 16: Mean", "setting": "subjects with insomnia; [5]", "value": "−0.1"}, {"measurement": "Change from Baseline in KSS, Mean of Days 2 & 3: LS Means Diff vs placebo", "setting": "subjects with insomnia; [6]", "value": 0.32}, {"measurement": "Change from Baseline in KSS, Mean of Days 2 & 3: Mean", "setting": "subjects with insomnia; [6]", "value": 0.1}, {"measurement": "Change from Baseline in KSS, Mean of Days 15 & 16: LS Means Diff vs placebo", "setting": "subjects with insomnia; [6]", "value": 0.38}, {"measurement": "Change from Baseline in KSS, Mean of Days 15 & 16: Mean", "setting": "subjects with insomnia; [6]", "value": 0.1}, {"measurement": "Change from Baseline in KSS, Mean of Days 2 & 3: LS Means Diff vs placebo", "setting": "subjects with insomnia; [7]", "value": 0.47}, {"measurement": "Change from Baseline in KSS, Mean of Days 2 & 3: Mean", "setting": "subjects with insomnia; [7]", "value": 0.4}, {"measurement": "Change from Baseline in KSS, Mean of Days 15 & 16: LS Means Diff vs placebo", "setting": "subjects with insomnia; [7]", "value": 0.68}, {"measurement": "Change from Baseline in KSS, Mean of Days 15 & 16: Mean", "setting": "subjects with insomnia; [7]", "value": 0.6}, {"measurement": "KSS LS mean differences vs placebo, significance", "setting": "subjects with insomnia; 1 hour post waketime, Mean of Days 2/3, 1 mg to 15 mg", "value": "not statistically significant"}, {"measurement": "KSS vs placebo, significance", "setting": "subjects with insomnia; 2 hour post waketime, mean of Days 2/3, 15 mg and 25 mg", "value": "statistical significance"}, {"measurement": "KSS vs placebo, significance", "setting": "subjects with insomnia; 2 hour post waketime, mean of Days 15/16, 25 mg", "value": "statistically significant"}]}]}
